Assay results taken from paper PMC12079613 (Journal of medicinal chemistry, 2019).
One block for each compound: values may come before it.

Key:
[1] = target: T1, D3R (Homo sapiens, UniProt P35462); experiment: Radioligand binding, [125I]IABN, HEK cells expressing human D3; conditions: for D2/D3 ratio: (Ki for D2 receptors)/(Ki for D3 receptors)
[2] = target: human D2 (long) (Homo sapiens, UniProt P14416); experiment: Radioligand binding, [125I]IABN, HEK cells expressing human D2; conditions: human D2 in HEK cells, mean ± SEM, at least three experiments
[3] = target: α2β4 (Rattus norvegicus, UniProt P12389+P12392); experiment: PDSP binding, α2β4; conditions: read-out: inhibition in primary assay at 10 μM
[4] = target: T1, D3R; experiment: Dopamine-mediated β-arrestin 2 recruitment assay; type: cell-based; conditions: DA as orthosteric ligand
[5] = target: α2β2 (Rattus norvegicus, UniProt P12389+P12390); experiment: PDSP binding, α2β2; conditions: read-out: inhibition in primary assay at 10 μM
[6] = target: serotonin subclass receptors; experiment: PDSP binding, serotonin subclass receptors; conditions: read-out: Ki for all of the serotonin subclass receptors
[7] = target: α4β4 (Rattus norvegicus, UniProt P09483+P12392); experiment: PDSP binding, α4β4; conditions: read-out: inhibition in primary assay at 10 μM
[8] = target: α3β2 (Rattus norvegicus, UniProt P04757+P12390); experiment: PDSP binding, α3β2; conditions: read-out: inhibition in primary assay at 10 μM
[9] = target: T1, D3R; experiment: PDSP β-arrestin recruitment Tango assay, D3R; type: cell-based; conditions: Tango assays, agonist and antagonist mode
[10] = target: α3β4 (Rattus norvegicus, UniProt P04757+P12392); experiment: PDSP binding, α3β4; conditions: read-out: inhibition in primary assay at 10 μM
[11] = target: D2R (Homo sapiens, UniProt P14416); experiment: PDSP β-arrestin recruitment Tango assay, D2R; type: cell-based; conditions: Tango assays, agonist and antagonist mode
Chain of D2R (P14416 whole entry): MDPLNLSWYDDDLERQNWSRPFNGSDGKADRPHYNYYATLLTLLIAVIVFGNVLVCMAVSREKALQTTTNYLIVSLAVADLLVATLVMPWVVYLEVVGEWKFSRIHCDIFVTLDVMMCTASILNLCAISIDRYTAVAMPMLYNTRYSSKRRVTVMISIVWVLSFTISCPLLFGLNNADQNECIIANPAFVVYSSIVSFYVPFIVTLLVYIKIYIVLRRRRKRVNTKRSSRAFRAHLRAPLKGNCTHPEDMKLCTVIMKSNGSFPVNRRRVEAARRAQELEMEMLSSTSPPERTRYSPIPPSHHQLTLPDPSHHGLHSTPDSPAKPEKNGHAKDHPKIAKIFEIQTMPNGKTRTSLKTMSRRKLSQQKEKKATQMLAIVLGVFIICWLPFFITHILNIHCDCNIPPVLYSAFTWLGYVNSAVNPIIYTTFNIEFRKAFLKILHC

T1 sequence (P35462 whole entry): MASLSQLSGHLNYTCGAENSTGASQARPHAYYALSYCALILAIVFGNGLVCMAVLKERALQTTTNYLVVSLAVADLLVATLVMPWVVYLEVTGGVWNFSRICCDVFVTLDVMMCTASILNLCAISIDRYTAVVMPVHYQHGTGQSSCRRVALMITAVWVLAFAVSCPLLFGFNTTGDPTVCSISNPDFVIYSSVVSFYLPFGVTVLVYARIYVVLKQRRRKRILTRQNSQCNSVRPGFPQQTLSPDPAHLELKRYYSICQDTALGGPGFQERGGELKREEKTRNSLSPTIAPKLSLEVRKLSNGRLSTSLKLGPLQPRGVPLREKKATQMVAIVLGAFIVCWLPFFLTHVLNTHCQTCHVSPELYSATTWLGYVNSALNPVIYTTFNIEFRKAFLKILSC
Chain of α2β2 (P12389 28-511): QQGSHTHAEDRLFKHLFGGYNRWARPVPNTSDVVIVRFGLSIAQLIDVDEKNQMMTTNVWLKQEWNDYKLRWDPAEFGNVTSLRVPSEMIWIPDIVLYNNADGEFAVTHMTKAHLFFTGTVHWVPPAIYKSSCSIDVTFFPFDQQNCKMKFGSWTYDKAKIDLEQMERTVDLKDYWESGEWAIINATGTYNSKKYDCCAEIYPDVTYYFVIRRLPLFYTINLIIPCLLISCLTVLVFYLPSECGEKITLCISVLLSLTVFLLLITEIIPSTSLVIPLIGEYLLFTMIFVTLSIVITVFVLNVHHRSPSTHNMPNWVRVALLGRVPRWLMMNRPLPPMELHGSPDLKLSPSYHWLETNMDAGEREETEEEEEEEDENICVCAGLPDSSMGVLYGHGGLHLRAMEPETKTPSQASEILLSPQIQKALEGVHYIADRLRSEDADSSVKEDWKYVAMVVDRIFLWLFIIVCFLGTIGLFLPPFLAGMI
Chain of α2β2 (P12390 25-500): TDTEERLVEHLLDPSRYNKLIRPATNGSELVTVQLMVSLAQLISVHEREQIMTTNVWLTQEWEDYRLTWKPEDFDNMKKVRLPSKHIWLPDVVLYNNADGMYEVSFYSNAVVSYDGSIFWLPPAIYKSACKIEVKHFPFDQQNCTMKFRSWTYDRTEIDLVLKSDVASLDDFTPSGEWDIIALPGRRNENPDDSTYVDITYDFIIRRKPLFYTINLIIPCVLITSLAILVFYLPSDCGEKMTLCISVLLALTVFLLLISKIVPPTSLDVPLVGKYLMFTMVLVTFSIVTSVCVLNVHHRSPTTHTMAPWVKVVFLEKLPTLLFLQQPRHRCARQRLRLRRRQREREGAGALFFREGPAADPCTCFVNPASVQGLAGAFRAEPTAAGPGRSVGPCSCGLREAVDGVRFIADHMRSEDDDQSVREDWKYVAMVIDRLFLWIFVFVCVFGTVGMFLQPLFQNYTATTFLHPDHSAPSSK
Chain of α2β4 (P12389 28-511): as the sequence (P12389 28-511) above
Chain of α2β4 (P12392 21-495): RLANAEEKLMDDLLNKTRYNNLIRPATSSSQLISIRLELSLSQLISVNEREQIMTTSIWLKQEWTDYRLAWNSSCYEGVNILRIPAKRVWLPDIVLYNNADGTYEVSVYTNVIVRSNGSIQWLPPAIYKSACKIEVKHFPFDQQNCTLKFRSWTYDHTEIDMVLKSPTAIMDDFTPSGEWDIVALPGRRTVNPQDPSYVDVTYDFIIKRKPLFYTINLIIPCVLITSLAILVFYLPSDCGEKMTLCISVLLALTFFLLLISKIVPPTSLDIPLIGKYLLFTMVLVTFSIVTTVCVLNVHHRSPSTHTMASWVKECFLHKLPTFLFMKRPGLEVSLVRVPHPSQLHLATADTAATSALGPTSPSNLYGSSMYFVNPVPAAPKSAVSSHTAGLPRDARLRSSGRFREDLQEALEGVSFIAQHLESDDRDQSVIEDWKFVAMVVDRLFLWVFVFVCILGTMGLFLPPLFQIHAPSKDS
Chain of α3β2 (P04757 26-499): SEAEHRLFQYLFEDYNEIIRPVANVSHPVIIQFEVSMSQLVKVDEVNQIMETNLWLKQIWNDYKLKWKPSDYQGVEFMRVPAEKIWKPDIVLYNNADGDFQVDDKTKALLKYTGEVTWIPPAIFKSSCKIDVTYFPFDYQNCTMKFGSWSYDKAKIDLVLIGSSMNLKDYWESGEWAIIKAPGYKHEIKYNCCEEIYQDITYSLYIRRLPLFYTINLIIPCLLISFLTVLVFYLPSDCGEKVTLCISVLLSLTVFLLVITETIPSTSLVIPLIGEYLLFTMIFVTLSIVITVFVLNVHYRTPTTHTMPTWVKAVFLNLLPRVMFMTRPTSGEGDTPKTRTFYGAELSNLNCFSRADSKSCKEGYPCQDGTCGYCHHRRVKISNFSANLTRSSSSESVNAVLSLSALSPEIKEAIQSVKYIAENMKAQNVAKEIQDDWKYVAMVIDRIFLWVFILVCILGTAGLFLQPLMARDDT
Chain of α3β2 (P12390 25-500): as the sequence (P12390 25-500) above
Chain of α4β4 (P09483 31-630): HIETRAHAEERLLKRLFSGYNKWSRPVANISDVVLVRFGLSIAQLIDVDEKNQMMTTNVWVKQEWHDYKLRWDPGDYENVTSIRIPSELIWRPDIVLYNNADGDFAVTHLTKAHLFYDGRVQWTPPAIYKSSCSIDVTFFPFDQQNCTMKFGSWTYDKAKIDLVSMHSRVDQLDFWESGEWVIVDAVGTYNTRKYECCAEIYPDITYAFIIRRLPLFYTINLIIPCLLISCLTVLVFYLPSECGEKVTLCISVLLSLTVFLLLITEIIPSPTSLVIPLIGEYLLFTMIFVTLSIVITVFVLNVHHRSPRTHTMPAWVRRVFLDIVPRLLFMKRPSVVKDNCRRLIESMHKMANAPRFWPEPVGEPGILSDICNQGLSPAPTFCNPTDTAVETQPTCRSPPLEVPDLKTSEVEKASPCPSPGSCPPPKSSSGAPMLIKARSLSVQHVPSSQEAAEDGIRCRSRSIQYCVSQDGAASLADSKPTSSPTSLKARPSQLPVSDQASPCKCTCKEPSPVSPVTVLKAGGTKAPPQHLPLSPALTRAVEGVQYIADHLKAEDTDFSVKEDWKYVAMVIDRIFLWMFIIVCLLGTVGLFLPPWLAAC
Chain of α4β4 (P12392 21-495): as the sequence (P12392 21-495) above
Chain of human D2 (long) (P14416 whole entry): as the sequence (P14416 whole entry) above
Chain of α3β4 (P04757 26-499): as the sequence (P04757 26-499) above
Chain of α3β4 (P12392 21-495): as the sequence (P12392 21-495) above

Compound: COc1ccccc1N1CCC2(CCNCC2)CC1 [4b]
Ki ± SEM D2R [2]: 99,379 ± 11,752 nM
D2/D3 ratio [1]: >2.5
Ki ± SEM D3R ([1]; human D3 in HEK cells, [125I]IABN, mean ± SEM, at least three experiments): >39,319 nM

Compound: COc1ccccc1N1CCC2(CCN(CCCSc3nnc(-c4ccccc4)n3C)CC2)CC1 [Compound 1, 3-(2-methoxyphenyl)-9-(3-((4-methyl-5-phenyl-4H-1,2,4-triazol-3-yl)thio)-propyl)-3,9-diazaspiro[5.5]undecane]
inhibition at 10 µM [3]: < 50%
Schild plot regression slope [4]: linear regression slope near unity
shift of dopamine dose-response curves [4]: limitless rightward shift
inhibition at 10 µM [5]: < 50%
Ki [6]: > 1 µM
inhibition at 10 µM [7]: < 50%
inhibition at 10 µM [8]: < 50%

Compound: COc1ccccc1N1CCC2(CCN(CCCSc3nnc(-c4ccccc4)[nH]3)CC2)CC1 [Compound 17, 3-(2-Methoxyphenyl)-9-(3-((5-phenyl-4H-1,2,4-triazol-3-yl)thio)-propyl)-3,9-diazaspiro[5.5]undecane]
D2/D3 ratio [1]: 35

Compound: COc1ccccc1N1CCC2(CCN(CCSc3nnc(-c4ccccc4)n3C)CC2)CC1 [Compound 20, 3-(2-Methoxyphenyl)-9-(2-((4-methyl-5-phenyl-4H-1,2,4-triazol-3-yl)thio)ethyl)-3,9-diazaspiro[5.5]undecane]
D2/D3 ratio [1]: 100

Compound: COc1ccccc1N1CCN(CCCSc2nnc(-c3ccccc3)n2C)CC1 [Compound 31]
functional behavior at D3R [9]: weak agonist/antagonist
inhibition at 10 µM [10]: < 50%
inhibition at 10 µM [3]: < 50%
shift of dopamine dose-response curves [4]: limitless rightward shift
inhibition at 10 µM [5]: < 50%
inhibition at 10 µM [7]: < 50%
inhibition at 10 µM [8]: < 50%
functional behavior at D2R [11]: weak agonist/antagonist

Compound: COc1ccccc1N1CCC2(CCN(CCCSc3nnc(-c4ccccc4)n3C)C2)CC1 [Compound 34, 8-(2-Methoxyphenyl)-2-(3-((4-methyl-5-phenyl-4H-1,2,4-triazol-3-yl)thio)propyl)-2,8-diazaspiro[4.5]decane]
increase in receptor selectivity ([1]; relative to 33): 2 fold

Second part, the compound after the results:

D2/D3 ratio [1]: >197
Compound: 3-(2-((4-Methyl-5-phenyl-4H-1,2,4-triazol-3-yl)thio)propyl)-3,9-diazaspiro[5.5]undecane [Compound 6f]

D2/D3 ratio [1]: >9.6
Compound: CCCCN1CCC2(CC1)CCN(c1ccccc1OC)CC2 [Compound 5a, 3-Butyl-9-(2-methoxyphenyl)-3,9-diazaspiro[5.5]undecane]

D2/D3 ratio [1]: >1.1
Compound: CCCCN1CCC2(CCN(c3ccccc3OC)C2)C1 (stereo not shown) [Compound 5c, 2-Butyl-7-(2-methoxyphenyl)-2,7-diazaspiro[4.4]nonane]

D2/D3 ratio [1]: >3.6
Compound: CCCSc1nnc(-c2ccccc2)n1C [Compound 6a, 4-Methyl-3-phenyl-5-(propylthio)-4H-1,2,4-triazole]
